{"source": "patent US7452687B2", "about": "(Asahi Kasei Pharma Corporation, priority 2002, dated 2008)", "key": {"[1]": {"test_system": "myo-inositol dehydrogenase", "experiment": "Study on buffers in reagents for myo-inositol quantitative determination (acceleration stability test of R-2 reagent)", "conditions": "100 mM buffer pH 8.8; R-2 stored at 30° C. for 20 days, tested on 7th, 12th, 20th days"}, "[2]": {"test_system": "myo-inositol dehydrogenase derived from the strain F.sp.671", "experiment": "Relative activity assay (initial velocity with each coenzyme or substrate)", "format": "biochemical, Flavobaterium sp. 671", "conditions": "for Substrate specificity (enzyme activity for each substrate): coenzyme NAD, substrate 20 mM, pH 10.0, 37° C., initial velocity to myo-inositol as 100%; for Relative activity ratio for each coenzyme used: substrate 20 mM myo-inositol, coenzyme 2 mM, 100 mM glycine buffer pH 10.0, 37° C., NAD as 100%", "method": "The relative activities were determined with the coenzyme changed according to the following method. Relative Activity Assay <Composition of Reaction Solution> • Buffer: 100 mM glycine buffer (pH 10.0) • Substrate: 20 mM myo-inositol (Sigma, Co., Ltd.) • Coenzyme: 2 mM (NAD, thio-NAD, NADP, thio NADP; Oriental Yeast Co., Ltd.) One ml of the above reaction solution is added to a quartz cell. Then, the quartz cell is placed in a spectrophotometer adjusted at a temperature of 37° C. The cell is incubated for 5 minutes or more and then 20 μl of an enzyme solution of about 1.0 U/ml is added thereto and mixed. The initial velocity is obtained from an absorbance change per minute at a wavelength peculiar to each reduced coenzyme. The initial velocity obtained with each coenzyme is compared with the initial velocity (100%) obtained using NAD as a coenzyme to provide the relative activity. According to the relative activity assay described above, the measurement was performed using the same concentration of D-chiro-inositol, D-mannose, D-fructose, D-galactose, mannitol, epi-inositol, or scyllo-inositol in place of the substrate in the reaction solution. […] The substrates used include D-mannose, D-fructose, D-galactose, mannitol, D-chiro-inositol (as above: Wako Pure Chemical Industries, Ltd.), myo-inositol, epi-inositol, and scyllo-inositol (as above: Sigma, Co., Ltd.). Following the relative activity assay described above, the measurement was performed using each of 100 mM tris buffer (pH 7.0-9.0) and 100 mM glycine buffer (pH 9.0-11.0) in place of 100 mM of pH 10.0 glycine buffer in the reaction solution. […] Using the relative activity assay described above, the concentration of myo-inositol and the concentrations of NAD and thio-NAD were changed to determine Km values respectively. Using the activity assay described above, the substrate concentration was changed to calculate the Km value."}, "[3]": {"test_system": "myo-inositol dehydrogenase", "conditions": "pH 8.8"}}, "note": "Entries after “also recorded” stand apart in the source; their conditions may differ. Like-named read-outs stand apart in the source and are kept apart here."}
{"molecule": "O=C(O)CN(CCO)CCO", "note": "[Bicine, N,N-Bis(hydroxyethyl)glycine]", "values": [{"measurement": "Stability of sensitivity of R-2 reagent by buffer, in comparison to the standard solution", "setting": "[1]", "value": "stable sensitivity; also recorded: most stable sensitivity"}]}
{"molecule": "O=C(CO)[C@@H](O)[C@H](O)[C@H](O)CO", "note": "[Fructose, D-fructose]", "values": [{"measurement": "Substrate specificity (enzyme activity for each substrate)", "setting": "[2]", "value": "less than 1%"}]}
{"molecule": "O=C[C@H](O)[C@@H](O)[C@@H](O)[C@H](O)CO", "note": "[Galactose, D-galactose]", "values": [{"measurement": "Substrate specificity (enzyme activity for each substrate)", "setting": "[2]", "value": "less than 1%"}]}
{"molecule": "OC[C@@H](O)[C@@H](O)[C@H](O)[C@H](O)CO", "note": "[Mannitol, mannitol]", "values": [{"measurement": "Substrate specificity (enzyme activity for each substrate)", "setting": "[2]", "value": 0, "unit": "%"}]}
{"molecule": "NC(=S)c1ccc[n+]([C@@H]2O[C@H](COP(=O)([O-])OP(=O)(O)OC[C@H]3O[C@@H](n4cnc5c(N)ncnc54)[C@H](O)[C@@H]3O)[C@@H](O)[C@H]2O)c1", "note": "[Thio-NAD, thio-nicotinamide adenine dinucleotide]", "values": [{"measurement": "Km", "setting": "[2]; coenzyme concentration changed, read-out: Km value for coenzyme", "value": "4.5 ± 1", "unit": "mM"}, {"measurement": "Relative activity ratio for each coenzyme used", "setting": "[2]", "value": 29, "unit": "%"}]}
{"molecule": "NC(=S)c1ccc[n+]([C@@H]2O[C@H](COP(=O)([O-])OP(=O)(O)OC[C@H]3O[C@@H](n4cnc5c(N)ncnc54)[C@H](OP(=O)(O)O)[C@@H]3O)[C@@H](O)[C@H]2O)c1", "note": "[Thio-NADP, thio-nicotinamide adenine dinucleotide phosphate]", "values": [{"measurement": "Relative activity ratio for each coenzyme used", "setting": "[2]", "value": 0, "unit": "%"}]}
{"molecule": "O=C(O)CNC(CO)(CO)CO", "note": "[Tricine, N-Tris(hydroxymethyl)methylglycine]", "values": [{"measurement": "Stability of sensitivity of R-2 reagent by buffer, in comparison to the standard solution", "setting": "[1]", "value": "stable sensitivity"}]}
{"molecule": "OC1C(O)C(O)C(O)C(O)C1O", "note": "[chiro-Inositol, D-chiro-inositol]", "values": [{"measurement": "Substrate specificity (enzyme activity for each substrate)", "setting": "[2]", "value": 18, "unit": "%"}]}
{"molecule": "OC1C(O)C(O)C(O)C(O)C1O", "note": "(stereo not drawn) [epi-Inositol, epi-inositol]", "values": [{"measurement": "Substrate specificity (enzyme activity for each substrate)", "setting": "[2]", "value": 2, "unit": "%"}]}
{"molecule": "O[C@H]1[C@H](O)[C@@H](O)[C@H](O)[C@@H](O)[C@H]1O", "note": "[myo-Inositol, myo-inositol]", "values": [{"measurement": "Substrate specificity (enzyme activity for each substrate)", "setting": "[2]", "value": 100, "unit": "%"}, {"measurement": "Km", "setting": "[2]; substrate concentration changed, read-out: Km value for substrate", "value": "1.7 ± 0.2", "unit": "mM"}]}
{"molecule": "O[C@H]1[C@H](O)[C@@H](O)[C@H](O)[C@@H](O)[C@@H]1O", "note": "[scyllo-Inositol, scyllo-inositol]", "values": [{"measurement": "Substrate specificity (enzyme activity for each substrate)", "setting": "[2]", "value": "less than 1%"}]}
{"molecule": "Tris(hydroxymethyl)aminomethane", "values": [{"measurement": "Stability of sensitivity of R-2 reagent by buffer, in comparison to the standard solution", "setting": "[3]", "value": "stable sensitivity"}]}
{"molecule": "nicotinamide adenine dinucleotide phosphate [NADP]", "values": [{"measurement": "Relative activity ratio for each coenzyme used", "setting": "[2]", "value": 8, "unit": "%"}]}
